Results taken from patent publication US10287552B2, “Generation of hepatocytes from pluripotent stem cells” (ALBERT EINSTEIN COLLEGE OF MEDICINE, INC., priority 2012, dated 2019).

B1: G-CSF: G-CSF (Amgen Inc.), factor identified in eFHLC-CM (protein, UniProt P09919 31-207, looked up)
Granulocyte …: TPLGPASSLPQSFLLKCLEQVRKIQGDGAALQEKLVSECATYKLCHPEELVLLGHSLGIPWAPLSSCPSQALQLAGCLSQLHSGLFLYQGLLQALEGISPELGPTLDTLQLDVADFATTIWQQMEELGMAPALQPTQGAMPAFASAFQRRAGGVLVASHLQSFLEVSYRVLRHLAQP

The molecules below were run on ATMP-tdT Huh-7 cells (assay: cis-P toxicity and ATM promoter activity assay). Details: 15 μM cis-P alone.
Type: cell-based, human

Row | Molecule | ATM promoter activity
1 | N.N.[Cl][Pt][Cl] [Cis-P, cis-platinum, reference compound] | increased

Same assay, conditions: cis-P plus factor, versus cis-P-treated cells

Row | Molecule | ATM promoter activity | cell viability
2 | FGF2: growth factor identified in eFHLC-CM | lowered ATM promoter activity | improved cell viability
3 | IGF1: growth factor identified in eFHLC-CM | lowered ATM promoter activity | improved cell viability
4 | FGF1: growth factor identified in eFHLC-CM | lowered ATM promoter activity | improved cell viability
5 | VEGF | ineffective | ineffective
6 | B1 | lowered ATM promoter activity | improved cell viability
